Earlier results in PMC3545186 (Biochemical Pharmacology, 2013).

Key:
[1] = cited from earlier work
[2] = Asian breast cancer patient population; cited from earlier work

Row | Compound | higher plasma concentrations in Abcb1a/1b knockout mice compared to wild type (WT) mice [1] | exposure in individuals homozygous mutant for ABCB1 C1236T, G2677T/A and C3435T [2]
1 | COc1cc([C@@H]2c3cc4c(cc3[C@@H](O[C@@H]3O[C@@H]5CO[C@@H](C)O[C@H]5[C@H](O)[C@H]3O)[C@H]3COC(=O)[C@H]23)OCO4)cc(OC)c1O [etoposide] | 1.4 fold | –
2 | COc1cccc2c1C(=O)c1c(O)c3c(c(O)c1C2=O)C[C@@](O)(C(=O)CO)C[C@@H]3O[C@H]1C[C@H](N)[C@H](O)[C@H](C)O1 [doxorubicin] | – | significantly higher exposure
